Assay results as given in US9809568B2, “Compounds inhibiting leucine-rich repeat kinase enzyme activity” (Merck Sharp & Dohme Corp., priority 2013, dated 2017).

What follows are molecules tested against LRRK2(G2019S mutation, GST-LRRK2 (amino acids 970-2527)) (Homo sapiens (Human), UniProt Q5S007, G2019S) (assay: LRRK2 Km ATP LanthaScreen Assay). Details: Km ATP LanthaScreen TR-FRET; G2019S LRRK2, LRRKtide substrate; mean IC50 of several tests.
Format: biochemical
From the text: Unless otherwise noted, all LRRK2 IC50 data presented in tables refers to the LRRK2 Km ATP LanthaScreen™ Assay that is described in the Biological Assay section.
The data presented for the Km ATP LanthaScreen™ Assay represents mean IC50 values based on several test results and may have reasonable deviations depending on the specific conditions and reagents used. Reagents for the LRRK2 Km ATP LanthaScreen™ Assay were purchased from Life Technologies Corporation.
LRRK2 Km ATP LanthaScreen™ Assay
• a) 400 nl of a 1:2.15 serial dilution of test compound (98 μM top assay concentration) is spotted via Labcyte Echo to certain wells in a 384 well black, untreated plate. Control wells contain 400 nl of either DMSO or 400 nl of a known inhibitor in DMSO. • b) 10 μl of a 2.5 nM LRRK2(G2019S mutation, GST-LRRK2 (amino acids 970-2527)) enzyme solution in 1× assay buffer (50 mM Tris pH 8.5, 10 mM MgCl2, 0.01% Brij-35, 1mM EGTA, 2 mM DTT, 0.05 mM NaVO4) is added to all wells. • c) A 30 minute room temperature incubation is followed by addition of 10 μl of 800 nM fluorescein labeled LRRKtide peptide substrate and 186 μM ATP solution in 1× assay buffer to all wells. • d) After a 60 minute room temperature incubation, 20 μl of TR-FRET Dilution Buffer (Invitrogen PV3756B) containing 4 nM Tb-labeled anti-phospho LRRKtide antibody and 20 mM EDTA is added to all wells. • e) Plates are incubated at room temperature for 1 hour and read on an Envision™ multi-mode plate reader with LanthaScreen™ settings. Results are analysed using Assay Data Analyzer.

Sequence of LRRK2(G2019S mutation, GST-LRRK2 (amino acids 970-2527)) (Q5S007 970-2527 G2019S): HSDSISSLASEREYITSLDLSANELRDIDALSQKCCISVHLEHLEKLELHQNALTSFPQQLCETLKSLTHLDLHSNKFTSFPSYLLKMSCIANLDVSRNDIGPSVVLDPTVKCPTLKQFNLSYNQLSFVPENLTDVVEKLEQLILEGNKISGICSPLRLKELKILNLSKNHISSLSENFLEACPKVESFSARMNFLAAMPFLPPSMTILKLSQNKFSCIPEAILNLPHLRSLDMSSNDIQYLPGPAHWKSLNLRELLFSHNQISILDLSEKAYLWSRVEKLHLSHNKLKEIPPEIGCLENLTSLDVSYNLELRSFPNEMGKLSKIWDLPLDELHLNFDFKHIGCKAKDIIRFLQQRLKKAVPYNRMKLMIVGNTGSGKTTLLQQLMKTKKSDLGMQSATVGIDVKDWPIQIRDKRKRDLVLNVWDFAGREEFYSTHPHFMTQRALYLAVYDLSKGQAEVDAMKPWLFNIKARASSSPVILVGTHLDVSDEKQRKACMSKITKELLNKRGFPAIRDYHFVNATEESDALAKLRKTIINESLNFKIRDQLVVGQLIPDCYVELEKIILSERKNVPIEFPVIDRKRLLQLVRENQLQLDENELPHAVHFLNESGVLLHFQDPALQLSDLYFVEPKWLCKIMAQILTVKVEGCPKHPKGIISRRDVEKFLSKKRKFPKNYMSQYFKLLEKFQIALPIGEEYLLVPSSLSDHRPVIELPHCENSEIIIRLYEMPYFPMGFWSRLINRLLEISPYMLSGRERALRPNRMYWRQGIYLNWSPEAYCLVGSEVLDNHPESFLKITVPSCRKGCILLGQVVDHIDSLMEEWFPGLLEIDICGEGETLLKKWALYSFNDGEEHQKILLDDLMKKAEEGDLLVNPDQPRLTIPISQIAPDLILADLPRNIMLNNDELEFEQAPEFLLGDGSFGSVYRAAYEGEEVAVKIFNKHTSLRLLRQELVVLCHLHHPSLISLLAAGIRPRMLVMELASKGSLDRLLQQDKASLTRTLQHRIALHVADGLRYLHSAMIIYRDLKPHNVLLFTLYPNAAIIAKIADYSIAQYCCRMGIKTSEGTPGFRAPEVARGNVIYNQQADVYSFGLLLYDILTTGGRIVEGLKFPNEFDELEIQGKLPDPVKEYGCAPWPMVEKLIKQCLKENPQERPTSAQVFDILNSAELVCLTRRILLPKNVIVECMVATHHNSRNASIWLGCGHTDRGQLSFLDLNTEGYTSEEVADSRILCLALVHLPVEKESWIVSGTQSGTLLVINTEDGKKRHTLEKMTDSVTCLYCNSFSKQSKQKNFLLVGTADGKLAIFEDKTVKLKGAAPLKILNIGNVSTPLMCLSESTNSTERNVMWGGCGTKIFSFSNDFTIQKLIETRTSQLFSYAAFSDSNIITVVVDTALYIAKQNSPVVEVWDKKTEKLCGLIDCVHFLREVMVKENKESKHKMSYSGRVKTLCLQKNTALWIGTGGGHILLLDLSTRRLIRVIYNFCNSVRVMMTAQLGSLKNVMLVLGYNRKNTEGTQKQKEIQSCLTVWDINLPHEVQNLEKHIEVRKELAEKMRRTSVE

SMILES	IC50 [nM]
CC(C)Oc1cc(F)c2[nH]nc(-c3ccnc(N4CCOCC4)c3)c2c1 [Example 4]	12
Fc1cc(-c2cnccn2)cc2c(-c3ccnc(N4CCOCC4)c3)n[nH]c12 [Example 6]	58
Cc1cc(-c2cnn(C)c2)cc2c(-c3ccnc(N4CCOCC4)c3)n[nH]c12 [Example 7]	199
Cn1cc(-c2cc(Cl)c3[nH]nc(-c4ccnc(N5CCOCC5)c4)c3c2)cn1 [Example 8]	309
Cn1cc(-c2cc(F)c3[nH]nc(-c4ccnc(N5CC(F)C5)c4)c3c2)cn1 [Example 10]	8.2
Cc1cc(-c2cnn(C)c2)cc2c(-c3ccnc(N4CCN(S(C)(=O)=O)CC4)c3)n[nH]c12 [Example 11]	218
Cc1cc(-c2cnn(C)c2)cc2c(-c3ccnc(N4CC[C@@H](F)C4)c3)n[nH]c12 [Example 12]	380
